Data from patent US12281114B2, “NK3 modulators and uses thereof” (Kallyope, Inc., priority 2023, dated 2025).

These compounds were tested against T1, human NK3 (Homo sapiens, UniProt P29371) (assay: FLIPR calcium assay in antagonist mode (NKB EC70 challenge)). Details: stable cell line expressing human recombinant NK3; antagonist mode vs EC70 of NKB agonist.
T1 sequence (P29371 1-465): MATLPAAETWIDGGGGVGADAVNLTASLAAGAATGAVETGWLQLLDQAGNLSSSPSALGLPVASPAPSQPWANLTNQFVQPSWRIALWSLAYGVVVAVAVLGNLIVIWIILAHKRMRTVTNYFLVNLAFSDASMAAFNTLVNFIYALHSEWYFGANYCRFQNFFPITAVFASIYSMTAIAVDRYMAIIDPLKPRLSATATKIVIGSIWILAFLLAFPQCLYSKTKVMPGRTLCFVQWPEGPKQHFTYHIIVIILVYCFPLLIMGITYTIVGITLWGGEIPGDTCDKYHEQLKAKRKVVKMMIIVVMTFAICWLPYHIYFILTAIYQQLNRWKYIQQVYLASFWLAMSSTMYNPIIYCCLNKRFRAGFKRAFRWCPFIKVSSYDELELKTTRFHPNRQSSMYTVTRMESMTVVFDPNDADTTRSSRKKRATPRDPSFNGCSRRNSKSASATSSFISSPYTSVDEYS
Assay type: cell-based
Description: Stable Cell Lines: A human recombinant NK3 Tachykinin Receptor stable cell line was purchased from GenScript (Genscript, Cat. #M00201; GenBank Accession Number NM 001059). The cell line was cultured according to manufacturer instructions, using 100 μg/mL Hygromycin B (Invitrogen, Cat. #D2650) for selective pressure. Cells were then collected using 0.05% Trypsin-EDTA (GIBCO, Cat. #25300) and frozen in a freezing media containing 90% FBS (Gibco, Cat. #10099-141) and 10% DMSO (Sigma, Cat. #D2650) at a density of 30×10^6 cells/mL. This bank of assay-ready frozen cells was later used in FLIPR assays to evaluate the potency and efficacy of NK3 antagonist test compounds.
FLIPR Calcium Assay: The FLIPR assay, used to measure changes in intracellular calcium levels, was performed in a 384-well plate format using the FLIPR Calcium 6 assay kit (Molecular Devices, Cat. #R8190). Assay-ready frozen cells expressing human NK3 (Genscript, Cat. #M00201) were thawed, washed, trypsinized, counted using a ViCell, and plated in cell growth media without Hygromycin at a density of […] (40 μL/well).
Calculation of NKB EC70: An EC70 concentration of NKB needed to be determined for competition against test antagonists prior to the compound screen. NKB agonist (Phoenix Pharmaceuticals, Cat. #046-26) was diluted in DMSO at 1800 nM (6-fold the final concentration) and serially diluted to generate a 13-point dose response curve (3-fold serial dilution) using an ECHO. 20 μL of 1× stimulation buffer was added using the BRAVO. 10 μL of DMSO was added while on the FLIPR (described as the first addition), then the RFU signal was measured for 10 minutes. The NKB titration was added to the plate, then the RFU signal was measured for 10 minutes (described as the second addition) on the FLIPR. The EC70 concentration was determined by using a four-parameter fit on GraphPad Prism prior to performing the compound screen.
FLIPR Screen in Antagonist Mode: Test compounds were prepared at 60 μM (6-fold the final concentration) and spotted in 370 nL using the Janus and ECHO. 20 μL of assay buffer was added using the BRAVO. Calcium-sensitive dye was reconstituted in loading buffer (Molecular Devices, Cat. #R8190). Media was removed from the cell plate using a Bluecat Cell Washer, and 40 μL of dye was added to the cell plate using the Apricot. The plate was incubated for 2 hours at 37° C., 5% CO2, then transferred to the FLIPR instrument. 10 μL of compound was added on the FLIPR (described as the first addition), then the RFU signal was measured for 10 minutes. EC70 of NKB agonist was added to the entire plate (described as the second addition), and the RFU signal was measured for 10 minutes on the FLIPR. RFU (relative fluorescence units) signals for first baseline, first peak, second baseline, and second peak were measured using the FLIPR. RFU signal (second peak minus second baseline) for positive (Max, at 10 μM antagonist) and negative (Min, at 0 μM antagonist) controls were used to normalize data and generate values for % Activity. IC50 and efficacy values were determined using a standard curve fitting equation on Dotmatics.

| SMILES | IC50 |
| --- | --- |
| Cc1nn(C)cc1-c1ccccc1-c1nc2cc(C(=O)N[C@H]3C[C@@H](CO)C3)ccn2c1Cl [Compound 643] | 1.08 nM |
| Cc1nn(C)cc1-c1ccccc1-c1nc2cc(C(=O)NC[C@H]3C[C@@](C)(O)C3)ccn2c1Cl [Compound 631] | 0.78 nM |
| Cc1nn(C)cc1-c1ccccc1-c1nc2cc(C(=O)NC3CCNCC3)ccn2c1Cl [Compound 704] | 6.76 nM |
| Cc1nn(C)cc1-c1ccccc1-c1nc2cc(C(=O)N3CC[C@H](N4CCNCC4)C3)ccn2c1C (single isomer, unassigned) [Compound 481] | 16.1 nM |
| Cc1nn(C)cc1-c1ccccc1-c1nc2cc(C(=O)NC[C@@H]3CNCCO3)ccn2c1Cl [Compound 455] | 1.74 nM |
| Cc1nn(C)cc1-c1ccccc1-c1nc2cc(C(=O)N[C@H]3C[C@@](C)(C(=O)O)C3)ccn2c1C [Compound 298] | 26.8 nM |
| Cc1nn(C)cc1-c1ccccc1-c1nc2cc(C(=O)N[C@H]3C[C@](C)(C(=O)O)C3)ccn2c1C [Compound 317] | 7.03 nM |
| Cc1nn(C)cc1-c1ccccc1-c1nc2cc(C(=O)NC[C@]34C[C@](CO)(C3)C4)ccn2c1Cl [Compound 635] | 1.65 nM |
| Cc1nn(C)cc1-c1ccccc1-c1nc2cc(C(=O)N[C@H]3CO[C@H]4[C@@H]3OC[C@H]4O)ccn2c1C#N [Compound 781] | 12.7 nM |
| Cc1nn(C)cc1-c1ccccc1-c1nc2cc(C(=O)NC3CCNCC3)ccn2c1C [Compound 264] | 10.7 nM |
| Cc1nn(C)cc1-c1ccccc1-c1nc2cc(C(=O)NCc3cnc(N)nc3)ccn2c1Cl [Compound 761] | 1.92 nM |
| Cc1nn(C)cc1-c1ccccc1-c1nc2cc(C(=O)N[C@@H]3C[C@H]3CO)ccn2c1Cl [Compound 619] | 1.24 nM |
| Cc1nn(C)cc1-c1ccccc1-c1nc2cc(C(=O)N[C@@H]3CO[C@H]4[C@@H]3OC[C@@H]4O)ccn2c1Cl [Compound 473] | 2.26 nM |
| Cc1nn(C)cc1-c1ccccc1-c1nc2cc(C(=O)NC[C@H]3C[C@@H](O)C3(C)C)ccn2c1Cl [Compound 645] | 2.02 nM |
| CCn1ncc(-c2ccccc2-c2nc3cc(C(=O)N[C@@H]4CO[C@H]5[C@@H]4OC[C@H]5O)ccn3c2Cl)c1C [Compound 477] | 2.19 nM |
| Cc1c(-c2ccccc2-c2nc3cc(C(=O)N[C@H]4C[C@](C)(C(=O)O)C4)ccn3c2C)cnn1C [Compound 312] | 41.7 nM |
| Cc1nn(C)cc1-c1ccccc1-c1nc2cc(C(=O)N3CC[C@@H](N4CCNCC4)C3)ccn2c1C (single isomer, unassigned) [Compound 480] | 20.7 nM |
| Cc1nn(C)cc1-c1ccccc1-c1nc2cc(C(=O)N3CCc4c[nH]nc4C3)ccn2c1Cl [Compound 452] | 2.79 nM |
| Cc1nn(C)cc1-c1ccccc1-c1nc2cc(C(=O)NC[C@H]3CNCCO3)ccn2c1Cl [Compound 461] | 3.41 nM |

Next, values leading:

| IC50 | SMILES |
| --- | --- |
| 4.7 nM | Cc1nn(C)cc1-c1cccc(F)c1-c1nc2cc(C(=O)N3CCNCC3)ccn2c1Cl [Compound 799] |
| 3 nM | Cn1cc(-c2cccc(F)c2-c2nc3cc(C(=O)N[C@H]4CC[C@](C)(O)CC4)ccn3c2C#N)c(F)n1 [Compound 930, 3-cyano-2-(2-fluoro-6-(3-fluoro-1-methyl-1H-pyrazol-4-yl)phenyl)-N-((1r,4r)-4-hydroxy-4-methylcyclohexyl)imidazo[1,2-a]pyridine-7-carboxamide] |
| 6.21 nM | Cc1c(-c2ccccc2-c2cn(C)nc2C(F)(F)F)nc2cc(C(=O)N[C@H]3CO[C@H]4[C@@H]3OC[C@H]4O)ccn12 [Compound 784] |
| 0.46 nM | Cn1cc(-c2cccc(F)c2-c2nc3cc(C(=O)NCC45CC(CO)(CO4)C5)ccn3c2Cl)c(F)n1 [Compound 839] |
| 1.1 nM | CC(C)(O)C12CC(NC(=O)c3ccn4c(F)c(-c5c(F)cccc5-c5c[nH]nc5F)nc4c3)(C1)C2 [Compound 836] |
| 8.45 nM | Cc1nn(C)cc1-c1ccccc1-c1nc2cc(C(=O)N[C@@H]3CO[C@H]4[C@@H]3OC[C@H]4N)ccn2c1Cl [Compound 794] |
| 1.08 nM | Cn1cc(-c2cccc(F)c2-c2nc3cc(C(=O)N[C@H]4C[C@](O)(CO)C4)ccn3c2Cl)c(F)n1 [Compound 843] |
| 1.42 nM | Cn1cc(-c2cccc(F)c2-c2nc3cc(C(=O)NC45CCC(CO)(C4)OC5)ccn3c2Cl)c(F)n1 (stereo not shown) [Compound 854] |
| 0.84 nM | Cn1cc(-c2ccc(F)c(F)c2-c2nc3cc(C(=O)N[C@H]4C[C@@](C)(O)C4)ccn3c2Cl)c(F)n1 [Compound 916] |
| 1.38 nM | Cn1cc(-c2cccc(F)c2-c2nc3cc(C(=O)N4CC5(C4)CC(C)(O)C5)ccn3c2Cl)c(F)n1 [Compound 842] |
| 7.72 nM | Cc1nn(C)cc1-c1ccncc1-c1nc2cc(C(=O)N[C@H]3C[C@](C)(O)C3)ccn2c1Cl [Compound 825] |
| 0.71 nM | Cn1cc(-c2cccc(F)c2-c2nc3cc(C(=O)N[C@H]4CC5(C[C@@H](O)C5)C4)ccn3c2Cl)c(F)n1 (stereo partly drawn) [Compound 921, trans 3-chloro-2-(2-fluoro-6-(3-fluoro-1-methyl-1H-pyrazol-4-yl)phenyl)-N-(6-hydroxyspiro[3.3]heptan-2-yl)imidazo[1,2-a]pyridine-7-carboxamide] |
| 3.25 nM | Cc1nn(C)cc1-c1cncc(F)c1-c1nc2cc(C(=O)N[C@H]3C[C@@](C)(O)C3)ccn2c1Cl [Compound 823] |
| 2.09 nM | Cc1nn(C)cc1-c1ccccc1-c1nc2cc(C(=O)N3CCC4(CC(CO)C4)C3)ccn2c1Cl (stereo not shown) [Compound 792] |
| 1.4 nM | C[C@]1(O)C[C@H](NC(=O)c2ccn3c(Cl)c(-c4ccccc4-c4cn(C5CC5)nc4Cl)nc3c2)C1 [Compound 826] |
| 2 nM | COC12CC(NC(=O)c3ccn4c(Cl)c(-c5c(F)cc(F)cc5-c5c[nH]nc5F)nc4c3)(C1)C2 [Compound 848] |
| 3.66 nM | Cc1c(-c2c(F)cc(F)cc2-c2cn(C)nc2F)nc2cc(C(=O)N[C@H]3C[C@@](C)(O)C3)ccn12 [Compound 831] |
| 0.94 nM | Cn1cc(-c2ccccc2-c2nc3cc(C(=O)NC4CC5(C4)CS(=O)(=O)C5)ccn3c2Cl)c(F)n1 [Compound 849] |
| 1.03 nM | CC12CC(NC(=O)c3ccn4c(Cl)c(-c5c(F)cc(F)cc5-c5c[nH]nc5Cl)nc4c3)(CO1)C2 [Compound 788, 3-chloro-2-(2-(3-chloro-1H-pyrazol-4-yl)-4,6-difluorophenyl)-N-(1-methyl-2-oxabicyclo[2.1.1]hexan-4-yl)imidazo[1,2-a]pyridine-7-carboxamide] |
| 1.92 nM | Cc1nn(C)cc1-c1c(F)c(F)cc(F)c1-c1nc2cc(C(=O)N3C[C@@H]4C[C@H]3C(=O)N4)ccn2c1Cl [Compound 817] |
| 1.27 nM | Cn1cc(-c2cccc(F)c2-c2nc3cc(C(=O)N[C@H]4CC[C@@](C)(O)CC4)ccn3c2Cl)c(F)n1 [Compound 919] |
| 0.58 nM | Cn1cc(-c2cccc(F)c2-c2nc3cc(C(=O)NC4CC5(COC5)C4)ccn3c2Cl)c(F)n1 [Compound 840] |
| 5.17 nM | Cn1cc(-c2cccc(F)c2-c2nc3cc(C(=O)NC45COC(CO)(C4)C5)ccn3c2Cl)c(F)n1 [Compound 838] |
| 1.85 nM | Cn1cc(-c2cccc(F)c2-c2nc3cc(C(=O)N[C@H]4C[C@](C)(O)C4)ccn3c2C#N)c(F)n1 [Compound 925, 3-cyano-2-(2-fluoro-6-(3-fluoro-1-methyl-1H-pyrazol-4-yl)phenyl)-N-((1r,3r)-3-hydroxy-3-methylcyclobutyl)imidazo[1,2-a]pyridine-7-carboxamide] |
